Measured values as given in PubChem BioAssay AID651866 (The Scripps Research Institute Molecular Screening Center, 2012).

Molecular target: Protein-arginine deiminase type-3 (Homo sapiens) (UniProt Q9ULW8)
Experiment: PubChem AID 651866
Conditions: recombinant PAD3, citrulline colorimetric, time-dependent inactivation; hits give high values

Chain of Protein-arginine deiminase type-3 (Homo sapiens) (Q9ULW8 whole entry, looked up): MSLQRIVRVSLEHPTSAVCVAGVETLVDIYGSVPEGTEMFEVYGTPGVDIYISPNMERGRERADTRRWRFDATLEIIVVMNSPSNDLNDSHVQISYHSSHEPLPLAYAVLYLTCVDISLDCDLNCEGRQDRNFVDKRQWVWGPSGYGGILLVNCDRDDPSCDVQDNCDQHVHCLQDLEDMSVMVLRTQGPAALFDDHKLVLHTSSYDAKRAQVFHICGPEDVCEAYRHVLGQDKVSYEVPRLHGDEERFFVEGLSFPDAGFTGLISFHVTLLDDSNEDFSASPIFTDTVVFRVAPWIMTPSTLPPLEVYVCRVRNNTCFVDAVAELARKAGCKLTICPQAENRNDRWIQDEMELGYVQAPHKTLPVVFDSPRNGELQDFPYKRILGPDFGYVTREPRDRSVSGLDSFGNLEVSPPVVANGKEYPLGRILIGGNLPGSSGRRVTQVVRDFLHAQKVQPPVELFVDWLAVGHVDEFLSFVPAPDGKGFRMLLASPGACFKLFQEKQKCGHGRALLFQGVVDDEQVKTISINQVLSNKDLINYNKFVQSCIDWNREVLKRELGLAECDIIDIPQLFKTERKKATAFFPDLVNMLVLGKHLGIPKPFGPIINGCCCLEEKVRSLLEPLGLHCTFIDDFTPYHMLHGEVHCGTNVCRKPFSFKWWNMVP

For NC1=CC(=O)c2ccc(-c3cccc(C(=O)O)n3)nc2C1=O, which kinact/KI is on record?
Its kinact/KI is 31.7 M⁻¹ s⁻¹.
